Experimental data from ChEMBL document CHEMBL4311933, “Biochemical and microbiological evaluation of N-aryl urea derivatives against mycobacteria and mycobacterial hydrolases” (Medchemcomm, 2019).
Converted amounts (≈) assume the structure as drawn. The source made the active and inactive calls. The calls are words filed in the database; no cut-off is given here.

Columns and labels:
[1] = molecular target: T1, Carboxylesterase/lipase Culp6 (Mycobacterium tuberculosis (strain ATCC 25618 / H37Rv), UniProt O53581); assay: (§1) Inhibition of recombinant Mycobacterium tuberculosis H37Rv ATCC 25618 Rv3802c expressed in Escherichia coli T7 assessed as residual activity by measuring hydrolysis of resorufin butyrate at 500 uM using resorufin butyrate as substrate preincubated for 15 mins followed by substrate addition relative to control; conditions: for activity at 500 µM: read-out: Activity
T1 sequence (O53581 whole entry): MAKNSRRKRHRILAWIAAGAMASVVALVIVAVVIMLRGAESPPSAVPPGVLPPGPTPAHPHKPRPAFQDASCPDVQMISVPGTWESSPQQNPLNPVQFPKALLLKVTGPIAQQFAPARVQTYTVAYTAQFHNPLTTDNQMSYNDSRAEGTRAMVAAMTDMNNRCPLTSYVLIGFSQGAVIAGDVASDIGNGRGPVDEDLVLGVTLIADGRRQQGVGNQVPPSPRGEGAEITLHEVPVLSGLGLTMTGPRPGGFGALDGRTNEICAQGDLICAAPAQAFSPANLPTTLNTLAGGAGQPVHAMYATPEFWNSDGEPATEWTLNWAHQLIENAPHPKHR

[2] = molecular target: T1, Carboxylesterase/lipase Culp6; assay: Inhibition of recombinant Mycobacterium tuberculosis H37Rv ATCC 25618 Rv3802c cutinase expressed in Escherichia coli T7 at 500 uM using resorufin butyrate as substrate preincubated for 15 mins followed by substrate addition relative to control
[3] = molecular target: T1, Carboxylesterase/lipase Culp6; assay: Inhibition of recombinant Mycobacterium tuberculosis H37Rv ATCC 25618 Rv3802c cutinase expressed in Escherichia coli T7 assessed as inhibition constant using resorufin butyrate as substrate preincubated for 15 mins followed by substrate addition
[4] = molecular target: T1, Carboxylesterase/lipase Culp6; assay: as §1, with “200” for “500”, “addition by” for “addition”; conditions: read-out: Activity
[5] = test system: Mycobacterium tuberculosis H37Rv; assay: Inhibition of recombinant Mycobacterium tuberculosis H37Rv ATCC 25618 mycolyltransferase expressed in Escherichia coli T7 at 500 uM using resorufin butyrate as substrate preincubated for 15 mins followed by substrate addition by fluorimetric assay
[6] = test system: Mycobacterium tuberculosis; assay: Antimycobacterial activity against Mycobacterium tuberculosis H37Rv mc2 6206 after 7 days by resazurin microtiter assay; assay type: functional; conditions: H37Rv mc2 6206, 168 h
[7] = test system: Mycobacterium tuberculosis; assay: Antimycobacterial activity against Mycobacterium tuberculosis H37Ra ATCC 25177 after 7 days by resazurin microtiter assay; assay type: functional; conditions: H37Ra ATCC 25177, 168 h
[8] = test system: Mycobacteroides abscessus; assay: Antimycobacterial activity against Mycobacterium abscessus ATCC 19977 after 7 days by resazurin microtiter assay; assay type: functional; conditions: ATCC 19977, 168 h
[9] = test system: Mycolicibacterium smegmatis; assay: Antimycobacterial activity against Mycobacterium smegmatis mc2 155 after 7 days by resazurin microtiter assay; assay type: functional; conditions: MC2 155, 168 h
L929 = assay: Cytotoxicity against murine L929 assessed as reduction in cell viability after 24 hrs by MTT assay; assay type: cell-based; conditions: Mus musculus, L929, 24 h
[10] = Selectivity index, ratio of IC50 for murine L929 cells to MIC for Mycobacterium tuberculosis H37Rv mc2 6206; assay type: toxicity; conditions: mouse, read-out: Selectivity Index
[11] = Selectivity index, ratio of IC50 for murine L929 cells to MIC for Mycobacterium tuberculosis H37Ra ATCC 25177; assay type: toxicity; conditions: mouse, read-out: Selectivity Index
[12] = test system: Mycobacterium tuberculosis H37Rv; assay: as §1, with “mycolyltransferase” for “Rv3802c”, “200” for “500”, “addition by fluorimetric assay” for “addition”

Compound | activity at 500 µM [1] | activity at 200 µM [4] | inhibition [5] | other results
O=C(NCc1ccco1)Nc1cc(F)cc(F)c1 | 13% | – | – | inhibition at 500 µM [2]: 88%; Ki [3]: 5.2 µM
O=C(NCC1CCCCC1)Nc1ccc(Br)cc1 | 100% | – | – | –
O=C(Nc1cc(F)cc(F)c1)N(Cc1ccc(F)cc1)Cc1ccco1 | – | 100% | – | –
O=C(NCc1ncc[nH]1)Nc1cc(F)cc(F)c1 | – | 100% | – | –
CSc1nncn1C(=O)NCC1CCCCC1 | – | 40% | – | –
O=C(NCC1CCCCC1)n1nnc2ccccc21 | – | 43% | – | –
O=C(NCc1nc2ccccc2[nH]1)Nc1cc(F)cc(F)c1 | – | 20% | – | –
O=C(NCc1ccco1)Nc1ccccc1 | 38.2% | – | inactive | –
O=C(NCC1CCCCC1)Nc1ccc(F)cc1 | 66% | – | – | –
O=C(Nc1ccccc1)N1CCCCC1 | 43% | – | inactive | –
O=C(NCC1CCCCC1)Nc1ccc(C(F)(F)F)cc1 | 83.6% | – | – | MIC [6]: 1.5 µM (≈ 0.45 µg/mL); MIC [7]: 12.5 µM (≈ 3.75 µg/mL); MIC [8]: > 100 µM; MIC [9]: > 100 µM; IC50 (L929): 56 µM; selectivity ratio [10]: > 20; selectivity ratio [11]: > 20
O=C(Nc1ccccc1)NC1CCCCC1 | 84.3% | – | inactive | –
O=C(NCc1cccs1)Nc1ccccc1 | 50.5% | – | inactive | –
O=C(NCC1CCCCC1)Nc1ccccc1 | 53% | – | inactive | –
O=C(NCC1CCCCC1)Nc1ccc([N+](=O)[O-])cc1 | – | – | – | Activity ([1]; 500 µM): Active; MIC [6]: 3.12 µM (≈ 0.865 µg/mL); MIC [7]: 25 µM (≈ 6.93 µg/mL); MIC [8]: > 100 µM; MIC [9]: 15.6 µM (≈ 4.33 µg/mL); IC50 (L929): 57 µM; selectivity ratio [10]: > 20; selectivity ratio [11]: > 20
O=C(NCC1CCCCC1)Nc1cc(F)cc(F)c1 | 72.5% | – | – | MIC [6]: 3.12 µM (≈ 0.837 µg/mL); MIC [7]: 25 µM (≈ 6.71 µg/mL); MIC [8]: 25 µM (≈ 6.71 µg/mL); MIC [9]: 62.5 µM (≈ 16.8 µg/mL); IC50 (L929): 70 µM; selectivity ratio [10]: > 20; selectivity ratio [11]: > 20
O=C(Nc1ccccc1)NC1CCCC1 | 56.2% | – | inactive | –
O=C(NCc1ccco1)Nc1ccc(F)cc1 | 54.9% | – | – | –
O=C(NCc1ccco1)Nc1ccc(C(F)(F)F)cc1 | 82% | – | – | –
O=C(Nc1cc(F)cc(F)c1)N(Cc1ccco1)Cc1ccco1 | – | 100% | – | –
O=C(NCc1ccco1)n1nnc2ccccc21 | – | 44% | – | Activity [12]: 80%
O=C(NCc1ccco1)n1ccnn1 | – | 72.5% | – | Activity [12]: 14%
O=C(NCCc1ccccc1)Nc1ccccc1 | 73.1% | – | inactive | –
